The numbers were not newly measured in CN103919735A, “一种盐酸坦索罗辛缓释微丸及其制备方法” (Pharmaceutical (wuhan) Co Ltd, priority 2014, dated 2014), which cites them from elsewhere.

The data set concerns BPH patients [BPH患者]. Particulars: for relief of LUTS caused by BPH (in words): large number of studies.

As for `CC(C)(C)NC(=O)[C@H]1CC[C@H]2[C@@H]3CC[C@H]4NC(=O)C=C[C@]4(C)[C@H]3CC[C@]12C` [非那雄胺], the “relief of LUTS caused by BPH (in words)” value is reported as “均能有效缓解”.
As to `CCOc1ccccc1OCCN[C@H](C)Cc1ccc(OC)c(S(N)(=O)=O)c1` [盐酸坦索罗辛], the “relief of LUTS caused by BPH (in words)” value is given as “均能有效缓解”. The “efficacy in long-term use (in words)” value (clinical study of 6 years in BPH, stated for α1 receptor blockers) is listed as “能够维持稳定的疗效”. For the same compound, the “time to symptom improvement after treatment” value (clinical, BPH) was 48 h.
